Measured values as given in publication PMC10342134, “Isolation and Characterization of Poeciguamerin, a Peptide with Dual Analgesic and Anti-Thrombotic Activity from the Poecilobdella manillensis Leech” (International Journal of Molecular Sciences, 2023).
Bridge positions count the residues as written; N and C are the ends. Ends that are not written are not given here.

Columns and labels:
[1] = target: T1, FXIIa (Homo sapiens, UniProt P00748); assay: Effect on FXIIa activity (chromogenic substrate assay; Dixon plot Ki); type: biochemical; settings: natural poeciguamerin 0-40 μM; FXIIa 10 nM; S-2302 0.2 mM; 50 mM Tris-HCl pH 7.4; 5 min, room temperature; OD405 for 10 min
T1 construct: purchased Enzyme Research Laboratories 1212a
T1 sequence (P00748 373-615 limits assumed): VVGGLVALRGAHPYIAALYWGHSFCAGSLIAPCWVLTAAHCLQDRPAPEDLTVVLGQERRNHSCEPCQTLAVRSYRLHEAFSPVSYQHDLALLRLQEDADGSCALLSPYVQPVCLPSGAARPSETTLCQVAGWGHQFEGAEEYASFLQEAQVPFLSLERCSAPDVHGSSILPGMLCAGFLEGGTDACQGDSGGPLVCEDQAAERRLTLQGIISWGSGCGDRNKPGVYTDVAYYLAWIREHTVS
T1 sequence (P00748 20-372 partner limits assumed): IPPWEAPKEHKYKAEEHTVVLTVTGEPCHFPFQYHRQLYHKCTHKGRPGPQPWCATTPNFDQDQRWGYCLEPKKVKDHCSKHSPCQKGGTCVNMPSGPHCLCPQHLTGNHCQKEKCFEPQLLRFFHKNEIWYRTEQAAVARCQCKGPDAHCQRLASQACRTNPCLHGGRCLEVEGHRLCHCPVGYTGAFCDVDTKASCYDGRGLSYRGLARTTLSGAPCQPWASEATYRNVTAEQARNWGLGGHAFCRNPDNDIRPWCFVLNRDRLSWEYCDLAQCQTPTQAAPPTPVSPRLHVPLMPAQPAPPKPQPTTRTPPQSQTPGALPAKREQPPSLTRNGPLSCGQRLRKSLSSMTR
Text: (§1) Thus, we examined the effects of poeciguamerin on proteases such as FXIIa, kallikrein, trypsin, thrombin, FXa, and elastase using appropriate chromogenic substrates.
(§2) Figure 3 Effects of poeciguamerin on elastase and coagulation. Effects of natural poeciguamerin on elastase (A), FXIIa (B), kallikrein (C), FXa (D), trypsin (E), and thrombin (F) enzymatic activities.
(§3) We mixed poeciguamerin with specific chromogenic substrates and proteases to evaluate the effect of poeciguamerin on various enzymatic activities. […] The proteases and different concentrations of natural poeciguamerin (0, 0.5, 1, 2, 10, 20, 40 μM) were incubated in a total volume of 60 μL in buffer (50 mM Tris-HCl pH 7.4) for 5 min at room temperature. Subsequently, a buffer containing the appropriate enzyme substrate was added to a total volume of 100 μL. Using an enzyme marker, GEN CHS v1.09 software detected OD405 at 30-s intervals and recorded for 10 min to calculate enzyme kinetics.

[2] = target: T2, kallikrein (Homo sapiens, UniProt P03952); assay: Effect on kallikrein activity (chromogenic substrate assay; Dixon plot Ki); type: biochemical; settings: natural poeciguamerin 0-40 μM; kallikrein 80 nM; S-2302 0.2 mM; 50 mM Tris-HCl pH 7.4; 5 min, room temperature; OD405 for 10 min
T2 construct: purchased Enzyme Research Laboratories 1303
T2 sequence (P03952 391-638 limits assumed): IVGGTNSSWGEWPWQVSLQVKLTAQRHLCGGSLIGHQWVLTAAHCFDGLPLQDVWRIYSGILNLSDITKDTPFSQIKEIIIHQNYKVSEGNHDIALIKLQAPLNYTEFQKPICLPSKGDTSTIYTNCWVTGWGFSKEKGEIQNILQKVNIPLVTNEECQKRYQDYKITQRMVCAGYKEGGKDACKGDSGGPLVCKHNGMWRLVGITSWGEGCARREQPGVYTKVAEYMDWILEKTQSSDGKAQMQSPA
T2 sequence (P03952 20-390 partner limits assumed): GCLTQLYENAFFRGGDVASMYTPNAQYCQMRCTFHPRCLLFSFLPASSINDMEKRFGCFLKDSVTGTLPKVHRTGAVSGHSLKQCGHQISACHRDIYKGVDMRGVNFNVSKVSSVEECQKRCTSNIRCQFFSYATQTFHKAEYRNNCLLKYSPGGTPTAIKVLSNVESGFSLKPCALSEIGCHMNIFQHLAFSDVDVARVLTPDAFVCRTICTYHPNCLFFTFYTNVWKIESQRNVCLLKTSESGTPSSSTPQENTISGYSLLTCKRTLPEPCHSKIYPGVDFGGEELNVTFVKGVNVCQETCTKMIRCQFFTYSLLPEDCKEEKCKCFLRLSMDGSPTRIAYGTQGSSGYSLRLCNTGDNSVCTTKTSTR
Text: as §1, §2, §3

[3] = tested on: thrombin; assay: Effect on thrombin activity (chromogenic substrate assay); type: biochemical; settings: natural poeciguamerin 0-40 μM; thrombin 10 nM; S-2238 0.2 mM; 50 mM Tris-HCl pH 7.4; 5 min, room temperature; OD405 for 10 min
Method: as §2
(§4) We mixed poeciguamerin with specific chromogenic substrates and proteases to evaluate the effect of poeciguamerin on various enzymatic activities. These enzymes and substrates included FXIIa (10 nM, 1212a, Enzyme Research Laboratories, South Bend, IN, USA; substrate: 0.2 mM, S-2302, Chromogenix, Milan, Italy), kallikrein (80 nM, 1303, Enzyme Research Laboratories, South Bend, IN, USA; substrate: 0.2 mM, S-2302, Chromogenix, Milan, Italy), trypsin (0.8 μM, T2600000, Sigma-Aldrich, St. Louis, MO, USA; substrate: 0.2 mM, S-2222, Chromogenix, Milan, Italy), thrombin (10 nM, 1002a, Enzyme Research Laboratories, South Bend, IN, USA; substrate: 0.2 mM, S-2238, Chromogenix, Milan, Italy), FXa (20 nM, 1011, Enzyme Research Laboratories, South Bend, IN, USA; substrate: 0.2 mM, S-2222, Chromogenix, Milan, Italy), elastase (0.4 μM, E8140, Sigma-Aldrich, St. Louis, MO, USA; substrate: 0.2 mM, 324696, Sigma-Aldrich, St. Louis, MO, USA), and other proteases were affected. […] Using an enzyme marker, GEN CHS v1.09 software detected OD405 at 30-s intervals and recorded for 10 min to calculate enzyme kinetics.

[4] = tested on: mice; assay: Tail withdrawal mouse model (hot water bath); type: in vivo, mouse (female C57BL/6J); settings: poeciguamerin 0, 6, 12 mg/kg, tail vein; water 45 °C; maximum time 15 s; n = 5 per group
Method: (§5) To evaluate the biological activity of poeciguamerin, we used the foot-licking mouse model and the tail-withdrawal mouse model. In the foot-licking mouse model, we placed the mice in a hot plate apparatus at a temperature of 55 ± 0.5 °C. The pain thresholds of the mice were measured twice every 15 min and hind paw licking was used as the observation parameter. Female mice showing a pain response within 10–30 s were selected and randomly divided into four groups. In the control group, 25 μL elastase (6 mg/kg) was injected into the base of the right hind paw, while in the experimental group, poeciguamerin (0, 6, 12 mg/kg) was injected intravenously 10 min before the elastase injection. […] The cumulative number of foot licks during the first phase (0–10 min) (Figure 5A) and the second phase (10–30 min) (Figure 5B) was recorded. […] The tails of the mice were stretched in hot water at 45 °C and the time of tail flicking was recorded.
(§6) Figure 5 Effects of poeciguamerin on elastase or hot water bath-induced pain. […] The total time mice spent licking the paw was recorded during the I phase (0–10 min) (A) and the II phase (10–30 min) (B). n = 5 per group. Data are expressed as mean ± SEM and were subjected to an unpaired t-test, *** p < 0.001. […] The tails of the mice were stretched in hot water at 45 °C and the time of the tail flick was recorded (C). n = 5 per group. […]

[5] = tested on: FXa; assay: Effect on FXa activity (chromogenic substrate assay); type: biochemical; settings: natural poeciguamerin 0-40 μM; FXa 20 nM; S-2222 0.2 mM; 50 mM Tris-HCl pH 7.4; 5 min, room temperature; OD405 for 10 min
Method: as §2, §4

[6] = tested on: trypsin; assay: Effect on trypsin activity (chromogenic substrate assay); type: biochemical; settings: natural poeciguamerin 0-40 μM; trypsin 0.8 μM; S-2222 0.2 mM; 50 mM Tris-HCl pH 7.4; 5 min, room temperature; OD405 for 10 min
Method: as §2, §4

[7] = target: T3, elastase (Homo sapiens, UniProt P08246); assay: Effect on elastase activity (chromogenic substrate assay; Dixon plot Ki); type: biochemical
T3 construct: purchased Sigma-Aldrich E8140
T3 sequence (P08246 30-267): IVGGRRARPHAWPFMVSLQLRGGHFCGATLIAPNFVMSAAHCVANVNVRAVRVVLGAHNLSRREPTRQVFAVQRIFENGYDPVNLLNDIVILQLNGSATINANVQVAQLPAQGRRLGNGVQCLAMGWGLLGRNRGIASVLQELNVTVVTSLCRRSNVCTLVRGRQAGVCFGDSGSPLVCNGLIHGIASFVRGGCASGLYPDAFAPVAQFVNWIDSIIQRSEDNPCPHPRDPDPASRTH
Text: as §1, §2, §3

[8] = tested on: mice; assay: Foot-licking mouse model (elastase-induced pain); type: in vivo, mouse (female C57BL/6J); settings: poeciguamerin 0, 6, 12 mg/kg i.v. 10 min before 25 μL elastase (6 mg/kg) in right hind paw; phase I 0–10 min and phase II 10–30 min; n = 5 per group
Method: as §5, §6

VDEKAEVTDDLCGDKTCSGAQVCQNDACVCSPVRCMIMCPNGFKLDENGCEYPCSCA (disulfide 12-23, 17-28, 30-50, 35-54, 39-56) [poeciguamerin]
effect on FXIIa activity [1]: slight inhibition
effect on kallikrein activity [2]: slight inhibition
effect on thrombin activity [3]: no inhibitory effects
effect on hot water-induced pain response (tail withdrawal latency) [4]: attenuated this pain response
effect on FXa activity [5]: no inhibitory effects
effect on trypsin activity [6]: no inhibitory effects
effect on elastase activity ([7]; natural poeciguamerin 0-40 μM, elastase 0.4 μM, substrate 324696 0.2 mM, 50 mM Tris-HCl pH 7.4, 5 min, room temperature, OD405 for 10 min): dose-dependent inhibition
inhibition of elastase activity by chromatographic peak fractions ([7]; peak fractions of P. manillensis salivary gland secretions (Sephadex G-50, RP-HPLC C8, Mono S FPLC), elastase chromogenic substrate assay): significantly inhibited elastase activity
effect on elastase-induced pain (cumulative foot licks) [8]: attenuated this painful response
